Assay results as given in patent US20250109370A1, “METHOD FOR PRODUCING CELL SUPPORT COMPOSITE, METHOD FOR PRODUCING DRUG EVALUATION APPARATUS, DRUG EVALUATION METHOD, AND DRUG EVALUATION APPARATUS” (NIKKISO CO., LTD., priority 2022, published 2025).

Legend:
[1] = biological target: T1, OAT1 (Homo sapiens, UniProt Q4U2R8); experiment: Membrane transportation evaluation using Transwell: cellular intake of radiolabeled Adefovir by monolayer of re-seeded aggregate-cultured cells (Test 7); type: in vitro ADME
T1 construct: Adefovir is a drug as a substrate for OAT1, that is, a drug that is transported by OAT1; host or cells: human renal proximal tubule epithelial cells, aggregate-cultured and re-seeded as a monolayer on a Transwell insert
T1 sequence (Q4U2R8 1-563): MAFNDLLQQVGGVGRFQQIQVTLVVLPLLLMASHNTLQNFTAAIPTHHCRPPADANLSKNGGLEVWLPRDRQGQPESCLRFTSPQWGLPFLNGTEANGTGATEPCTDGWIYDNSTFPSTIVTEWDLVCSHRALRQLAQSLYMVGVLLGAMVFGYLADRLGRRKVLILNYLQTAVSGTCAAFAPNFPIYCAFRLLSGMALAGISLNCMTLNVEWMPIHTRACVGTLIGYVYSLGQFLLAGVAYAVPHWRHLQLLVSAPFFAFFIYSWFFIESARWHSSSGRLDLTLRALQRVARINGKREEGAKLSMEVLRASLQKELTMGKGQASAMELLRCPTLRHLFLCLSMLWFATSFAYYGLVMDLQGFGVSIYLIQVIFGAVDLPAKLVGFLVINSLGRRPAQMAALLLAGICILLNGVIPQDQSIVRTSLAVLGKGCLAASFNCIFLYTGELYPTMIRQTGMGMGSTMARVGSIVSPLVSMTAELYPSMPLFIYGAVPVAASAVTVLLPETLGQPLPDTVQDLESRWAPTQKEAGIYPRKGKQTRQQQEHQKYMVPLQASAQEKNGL
Procedure: (§1) First, aggregates were formed, and a cell suspension was prepared from the aggregates to thereby re-seed the cells on the insert in the same manner as in Test 2. The seeding density was set to 4×10^4/well (12×10^4 cells/cm^2). Then, on the day after re-seeding (within 18 to 24 hours of re-seeding), membrane transport evaluation was performed using Transwell. In the membrane transport evaluation, radiolabeled Adefovir and radiolabeled Metformin were used. Adefovir is a drug as a substrate for OAT1, that is, a drug that is transported by OAT1. Metformin is a drug as a substrate for OCT2, that is, a drug that is transported by OCT2.
(§2) An assay buffer with each substrate added to a HBSS buffer was added to insert of the Transwell and treated for a predetermined time. For the Adefovir test, the treatment time was 2 minutes. For the Metformin test, the treatment time was 10 minutes. The cells were then retrieved, a cell suspension was prepared, and the radioisotopes in the cell suspension were quantified. As a result, the amount of substrate intake into the cell from the cellular apical membrane side was evaluated. The amount of substrate intake was also evaluated in the same manner when an inhibitor of OAT1, Probenecid, was added to the assay buffer and when an inhibitor of OCT2, Cimetidine, was added to the assay buffer.
(§3) The assay buffer was also added to the well of the Transwell and treated for a predetermined time. For the Adefovir test, the treatment time was 2 minutes. For the Metformin test, the treatment time was 10 minutes. The cells were then retrieved, a cell suspension was prepared, and the radioisotopes in the cell suspensions were quantified. As a result, the amount of substrate intake into the cell from the cellular basement membrane side was evaluated. The amount of substrate intake was also evaluated in the same manner when an inhibitor Probenecid was added to the assay buffer and when an inhibitor Cimetidine was added to the assay buffer.
(§4) In FIG. 15A and FIG. 15B, “A to C” indicates the amount of substrate intake into the cell from the cellular apical membrane side. […]

[2] = biological target: T2, OCT2 (Homo sapiens, UniProt O15244); experiment: Membrane transportation evaluation using Transwell: cellular intake of radiolabeled Metformin by monolayer of re-seeded aggregate-cultured cells (Test 7); type: in vitro ADME
T2 sequence (O15244 1-555): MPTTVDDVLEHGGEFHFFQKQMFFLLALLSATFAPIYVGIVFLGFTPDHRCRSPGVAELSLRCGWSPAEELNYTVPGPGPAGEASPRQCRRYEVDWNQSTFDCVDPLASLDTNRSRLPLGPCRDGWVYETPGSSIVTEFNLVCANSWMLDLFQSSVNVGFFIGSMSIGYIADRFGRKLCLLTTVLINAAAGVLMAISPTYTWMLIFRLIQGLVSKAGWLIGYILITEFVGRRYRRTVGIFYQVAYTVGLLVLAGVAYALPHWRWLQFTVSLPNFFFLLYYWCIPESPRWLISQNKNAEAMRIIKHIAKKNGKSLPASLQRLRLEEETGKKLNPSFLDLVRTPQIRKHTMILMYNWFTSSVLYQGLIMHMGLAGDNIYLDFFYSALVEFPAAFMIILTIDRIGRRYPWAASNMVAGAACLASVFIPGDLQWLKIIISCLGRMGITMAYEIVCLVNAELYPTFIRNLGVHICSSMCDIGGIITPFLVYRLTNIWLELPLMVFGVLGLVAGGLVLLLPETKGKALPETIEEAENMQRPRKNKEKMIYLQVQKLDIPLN
Procedure: as §1, §2, §3, §4

transporter responsible for intake ([2]; concluded from decrease with inhibitor Cimetidine) | substrate intake into the cells ([2]; radiolabeled Metformin in HBSS buffer, 10 minutes, human renal proximal tubule epithelial cells 18 to 24 hours after re-seeding, FIG. 15B) | SMILES | transporter responsible for intake ([1]; concluded from decrease with inhibitor Probenecid) | substrate intake into the cells ([1]; radiolabeled Adefovir in HBSS buffer, 2 minutes, human renal proximal tubule epithelial cells 18 to 24 hours after re-seeding, FIG. 15A) | amount of cellular intake, basement membrane side (B to C) versus apical membrane side (A to C) ([1]; radiolabeled Adefovir, 2 minutes, FIG. 15A) | amount of cellular intake, basement membrane side (B to C) versus apical membrane side (A to C) ([2]; radiolabeled Metformin, 10 minutes, FIG. 15B)
 |  | Nc1ncnc2c1ncn2CCOCP(=O)(O)O [Adefovir] | due to OAT1 | taken into the cells | higher from the cellular basement membrane side than from the cellular apical membrane side | 
due to OCT2 | taken into the cells | CN(C)C(=N)N=C(N)N [Metformin] |  |  |  | higher from the cellular basement membrane side than from the cellular apical membrane side
